From patent US4962110A, “Pyridazinone derivatives” (Smith Kline & French Laboratories Limited, priority 1989, dated 1990) come the findings set out here.

One assay concerns the target PDE (Peak III). Description: Inhibition of phosphodiesterase PDE (Peak III) from cat heart. As to conditions: read-out: IC50 PDE (Peak III); 1 μM cyclic AMP, 37°, pH 7.5.
In a further assay the test system is PDE (Peak I). Put plainly: Characterisation of PDE (Peak I) from cat heart: substrate kinetics. It counts as biochemical.
The next assay deals with PDE (Peak II). The note with it: in words.
For assay [1], the system named is right ventricular strips (force of contraction). Description: Cardiac stimulant activity in vitro: force of contraction of electrically stimulated guinea pig ventricular strips. Set-up: species or system Guinea pigs. The note with it: Cavia porcellus, read-out: EC50 (50% increase in the force of contraction of the ventricular strips); guinea pig right ventricle strips, Krebs Henseleit, 37° C., 1.0 Hz, cumulative concentration response. The method, then:
CARDIAC STIMULANT ACTIVITY--IN VITRO
The compounds of formula (I) and their pharmaceutically acceptable salts are tested for cardiac stimulant activity following a procedure based on that of S. C. Verma and J. H. McNeill (J. Pharm & Exp. Therapeutics, 200, 352-362 (1977)). Guinea pigs (500-700 g) of either sex are sacrificed and the hearts are quickly removed and transferred to a dissecting dish containing oxygenated bathing fluid. While in the bathing medium, the right ventricle is cut into two strips. The strips are each suspended in a 50 ml bath containing Krebs Henseleit solution at 37° C., and the bath is bubbled with 95% oxygen and 5% carbon dioxide. The ventricular strips are electrically stimulated at a frequency of 1.0 Hz, at double the threshold voltage. A resting tension of 1.0 g is applied to the strips and the tension is kept constant by readjustment during an equilibration period of 60 minutes. The bathing fluid is frequently changed during this period. When a steady base line is obtained, a compound under test is added to the bathing fluid and a cumulative concentration response curve is plotted.

Protocol for PDE (Peak II): (§1) The enzyme was assayed by incubation at 37° for 4-30 min in 50 mM Tris, 5 mM MgCl2, pH 7.5 with [3-H] cyclic nucleotide (4×10^5 disintegrations min^-1) and [14-C] nucleotide 5' monophosphate (3-10^3 disintegrations min^-1). The assay was stopped by boiling, and the [3-H] […] The reaction mixture was diluted with 0.5 ml 100 mM HEPES (N-2-Hydroxyethylpiperazine-N'-2-ethanesulfonic acid), 100 mM NaCl, pH 8.5, and applied to the column. […] The recovery of product as judged by [14-C] recovery was approximately 80%. All assays were linear with time of incubation and concentration of enzyme over the range used in these experiments.
Protocol for PDE (Peak III): as §1

The term IC50 denotes the concentration that gives 50% inhibition. In the case of `Cc1[nH]c(=O)c(C#N)cc1-c1ccncc1` [Milrinone], at PDE (Peak III), the IC50 came out at 2200 nM. Usually Km stands for the concentration of substrate that gives half-maximal velocity. `Nc1nc2c(ncn2[C@@H]2O[C@@H]3COP(=O)(O)O[C@H]3[C@H]2O)c(=O)[nH]1` [cyclic GMP]: the affinity entry in the assay on PDE (Peak I) (in words) was “high affinity”. Also, in the assay with PDE (Peak I) (with 50 μg/ml calmodulin), the Km was found to be 1400 nM and the “Relative Vmax” value was 7.2. In the assay with PDE (Peak II), the affinity entry is “relatively low affinities”. As for `CC1CC(=O)NN=C1c1ccc(Nc2nc(=O)c3ccccc3[nH]2)cc1` (centres unmarked) [Example 4, 6-[4-(1,4-Dihydro-4-oxo-2-quinazolinylamino)phenyl]-5-methyl-4,5-dihydro-3(2H)-pyridazinone], at PDE (Peak III), the IC50 is 150 nM. Still for that read-out and setting: in the case of `Cc1c[nH]c(Nc2ccc(C3=NNC(=O)CC3C)cc2)nc1=O` (centres unmarked) [Example 3, 6-[4-(1,4-Dihydro-5-methyl-4-oxo-2-pyrimidinylamino)-phenyl]-5-methyl-4,5-dihydro-3(2H)-pyridazinone] it was 1120 nM. Take `CC1CC(=O)NN=C1c1ccc(Nc2nc(=O)cc[nH]2)cc1` (centres unmarked) [Example 1, 6-[4-(1,4-Dihydro-4-oxo-2-pyrimidinylamino)phenyl]-5-methyl-4,5-dihydro-3(2H)-pyridazinone]: the EC50 in assay [1] turned out to be 600 nM. For the same compound, the IC50 at PDE (Peak III) is 690 nM.

In the case of `Nc1cc(-c2ccncc2)c[nH]c1=O` [Amrinone], the IC50 on PDE (Peak III) stood at 51800 nM. On the same count and under the same terms, in the case of `Cc1cc(=O)nc(Nc2ccc(C3=NNC(=O)CC3C)cc2)[nH]1` (centres unmarked) [Example 2, 6-[4-(1,4-Dihydro-6-methyl-4-oxo-2-pyrimidinylamino)phenyl]-5-methyl-4,5-dihydro-3(2H)-pyridazinone] it was 450 nM.
